Test results as given in patent US20240124427A1, “HYDROXYHETEROCYCLOALKANE-CARBAMOYL DERIVATIVES” (Idorsia Pharmaceuticals Ltd, priority 2021, published 2024).
pIC50: −log10 of the molar value.

These compounds were tested against human Gal-3 (hGal-3) (Homo sapiens (Human), UniProt P17931) (assay: Competitive binding assay: biotinylated hGal-3 binding to microplate-adsorbed asialofetuin (ASF)). Conditions: Activity on hGal-3; mean values of several measurements; mixture of diastereomers measured where not separated.
Description: The inhibitory activity of compounds is determined in competitive binding assays. This spectrophotometric assay measures the binding of biotinylated human Gal-3 (hGal-3) or human Gal-1 (hGal-1), respectively, to a microplate-adsorbed glycoprotein, asialofetuin (ASF) (Proc Natl Acad Sci USA. 2013 Mar 26;110(13):5052-7.). Alternatively, and preferably, a human Gal-1 version in which all six cysteines are substituted by serines may be used.
Briefly, compounds are serially diluted in DMSO (working dilutions).
Plates are incubated for 3 hours at 4° C., then washed with cold assay buffer (3×50 uL), incubated for 1 hour with 25 μL/well of a streptavidin-peroxidase solution (diluted in assay buffer to 80 ng/mL) at 4° C., followed by further washing steps with assay buffer (3×50 uL). Finally, 25 μL/well of ABTS substrate is added.
The calculated IC50 values may fluctuate depending on the daily assay performance. Fluctuations of this kind are known to those skilled in the art. IC50 values from several measurements are given as mean values.

Sequence of human Gal-3 (hGal-3) (P17931 whole entry): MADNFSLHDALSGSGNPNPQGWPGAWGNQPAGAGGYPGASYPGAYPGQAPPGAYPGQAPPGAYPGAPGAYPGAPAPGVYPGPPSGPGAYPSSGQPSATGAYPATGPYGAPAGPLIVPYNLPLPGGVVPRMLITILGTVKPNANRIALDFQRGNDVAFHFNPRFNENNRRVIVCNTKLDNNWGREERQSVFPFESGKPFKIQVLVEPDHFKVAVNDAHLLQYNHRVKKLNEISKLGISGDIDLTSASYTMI

CO[C@@H]1[C@@H](n2cc(-c3cc(F)c(C)c(F)c3)nn2)[C@@H](O)[C@@H](CO)O[C@H]1C(=O)N(c1cc(C)cc(Br)c1)[C@H]1COC[C@@H]1O [Example 18, (2R,3R,4S,5R,6R)-N-(3-bromo-5-methylphenyl)-4-(4-(3,5-difluoro-4-methylphenyl)-1H-1,2,3-triazol-1-yl)-5-hydroxy-6-(hydroxymethyl)-N-((3S,4R)-4-hydroxytetrahydrofuran-3-yl)-3-methoxytetrahydro-2H-pyran-2-carboxamide] and CO[C@@H]1[C@@H](n2cc(-c3cc(F)c(C)c(F)c3)nn2)[C@@H](O)[C@@H](CO)O[C@H]1C(=O)N(c1cc(Br)cc(C#N)c1)[C@@H]1COC[C@H]1O [Example 46, (2R,3R,4S,5R,6R)-N-(3-bromo-5-cyanophenyl)-4-(4-(3,5-difluoro-4-methylphenyl)-1H-1,2,3-triazol-1-yl)-5-hydroxy-6-(hydroxymethyl)-N-((3R,4S)-4-hydroxytetrahydrofuran-3-yl)-3-methoxytetrahydro-2H-pyran-2-carboxamide] are within 0.2 log units of each other in pIC50: 7.16 for the first, 7.09 for the second.

First: CO[C@@H]1[C@@H](n2cc(-c3ccc(Cl)c(Cl)c3)nn2)[C@@H](O)[C@@H](CO)O[C@H]1C(=O)N(c1cc(Cl)cc(Cl)c1)[C@H]1CNC[C@@H]1O [Example 65, (2R,3R,4S,5R,6R)-N-(3,5-dichlorophenyl)-4-(4-(3,4-dichlorophenyl)-1H-1,2,3-triazol-1-yl)-5-hydroxy-6-(hydroxymethyl)-N-((3S,4S)-4-hydroxypyrrolidin-3-yl)-3-methoxytetrahydro-2H-pyran-2-carboxamide]
Second: CO[C@@H]1[C@@H](n2cc(-c3ccc(Cl)c(Cl)c3)nn2)[C@@H](O)[C@@H](CO)O[C@H]1C(=O)N(c1cc(Cl)cc(Cl)c1)[C@@H]1COC[C@H]1O [Example 55, (2R,3R,4S,5R,6R)-N-(3,5-dichlorophenyl)-4-(4-(3,4-dichlorophenyl)-1H-1,2,3-triazol-1-yl)-5-hydroxy-6-(hydroxymethyl)-N-((3R,4S)-4-hydroxytetrahydrofuran-3-yl)-3-methoxytetrahydro-2H-pyran-2-carboxamide]
The pIC50 of the first is 0.48 log units higher: 7.27 for the first, 6.79 for the second.

Compared with CO[C@@H]1[C@@H](n2cc(-c3cc(F)c(F)c(F)c3)nn2)[C@@H](O)[C@@H](CO)O[C@H]1C(=O)N(c1cccc(Br)c1)[C@@H]1COC[C@H]1O [Example 31, (2R,3R,4S,5R,6R)-N-(3-bromophenyl)-5-hydroxy-6-(hydroxymethyl)-N-((3R,4S)-4-hydroxytetrahydrofuran-3-yl)-3-methoxy-4-(4-(3,4,5-trifluorophenyl)-1H-1,2,3-triazol-1-yl)tetrahydro-2H-pyran-2-carboxamide], CO[C@@H]1[C@@H](n2cc(-c3cc(F)c(F)c(F)c3)nn2)[C@@H](O)[C@@H](CO)O[C@H]1C(=O)N(c1cccc(I)c1)[C@H]1COC[C@@H]1O [Example 3, (2R,3R,4S,5R,6R)-5-hydroxy-6-(hydroxymethyl)-N-((3S,4R)-4-hydroxytetrahydrofuran-3-yl)-N-(3-iodophenyl)-3-methoxy-4-(4-(3,4,5-trifluorophenyl)-1H-1,2,3-triazol-1-yl)tetrahydro-2H-pyran-2-carboxamide] is 0.26 log units higher in pIC50: 6.99 for the first, 7.25 for the second.

First: CO[C@@H]1[C@@H](n2cc(-c3cc(F)c(Cl)c(F)c3)nn2)[C@@H](O)[C@@H](CO)O[C@H]1C(=O)N(c1cc(C)cc(Br)c1)[C@@H]1CN(C(C)=O)C[C@H]1O [Example 83, (2R,3R,4S,5R,6R)-N-((3R,4R)-1-acetyl-4-hydroxypyrrolidin-3-yl)-N-(3-bromo-5-methylphenyl)-4-(4-(4-chloro-3,5-difluorophenyl)-1H-1,2,3-triazol-1-yl)-5-hydroxy-6-(hydroxymethyl)-3-methoxytetrahydro-2H-pyran-2-carboxamide]
Second: CO[C@@H]1[C@@H](n2cc(-c3cc(F)c(F)c(F)c3)nn2)[C@@H](O)[C@@H](CO)O[C@H]1C(=O)N(c1cc(C)cc(Br)c1)[C@@H]1CNC[C@H]1O [Example 68, (2R,3R,4S,5R,6R)-N-(3-bromo-5-methylphenyl)-5-hydroxy-6-(hydroxymethyl)-N-((3R,4R)-4-hydroxypyrrolidin-3-yl)-3-methoxy-4-(4-(3,4,5-trifluorophenyl)-1H-1,2,3-triazol-1-yl)tetrahydro-2H-pyran-2-carboxamide]
The pIC50 of the first is 0.52 log units higher: 7.17 for the first, 6.65 for the second.

First: CO[C@@H]1[C@@H](n2cc(-c3ccc(Cl)c(Cl)c3)nn2)[C@@H](O)[C@@H](CO)O[C@H]1C(=O)N(c1cc(Br)cc(C#N)c1)[C@@H]1COC[C@H]1O [Example 57, (2R,3R,4S,5R,6R)-N-(3-bromo-5-cyanophenyl)-4-(4-(3,4-dichlorophenyl)-1H-1,2,3-triazol-1-yl)-5-hydroxy-6-(hydroxymethyl)-N-((3R,4S)-4-hydroxytetrahydrofuran-3-yl)-3-methoxytetrahydro-2H-pyran-2-carboxamide]
Second: CO[C@@H]1[C@@H](n2cc(-c3cc(F)c(Cl)c(F)c3)nn2)[C@@H](O)[C@@H](CO)O[C@H]1C(=O)N(c1cc(Br)cc(Br)c1)[C@H]1COC[C@@H]1O [Example 23, (2R,3R,4S,5R,6R)-4-(4-(4-chloro-3,5-difluorophenyl)-1H-1,2,3-triazol-1-yl)-N-(3,5-dibromophenyl)-5-hydroxy-6-(hydroxymethyl)-N-((3S,4R)-4-hydroxytetrahydrofuran-3-yl)-3-methoxytetrahydro-2H-pyran-2-carboxamide]
The pIC50 of the first is 0.44 log units lower: 6.82 for the first, 7.26 for the second.

First: CO[C@@H]1[C@@H](n2cc(-c3ccc(C)c(F)c3F)nn2)[C@@H](O)[C@@H](CO)O[C@H]1C(=O)N(c1cc(C)cc(Br)c1)[C@@H]1CN(C=O)C[C@H]1O [Example 95, (2R,3R,4S,5R,6R)-N-(3-bromo-5-methylphenyl)-4-(4-(2,3-difluoro-4-methylphenyl)-1H-1,2,3-triazol-1-yl)-N-((3R,4R)-1-formyl-4-hydroxypyrrolidin-3-yl)-5-hydroxy-6-(hydroxymethyl)-3-methoxytetrahydro-2H-pyran-2-carboxamide]
Second: CO[C@@H]1[C@@H](n2cc(-c3ccc(C)c(F)c3F)nn2)[C@@H](O)[C@@H](CO)O[C@H]1C(=O)N(c1cc(C)cc(Br)c1)[C@H]1CN(C=O)C[C@@H]1O [Example 92, (2R,3R,4S,5R,6R)-N-(3-bromo-5-methylphenyl)-4-(4-(2,3-difluoro-4-methylphenyl)-1H-1,2,3-triazol-1-yl)-N-((3S,4S)-1-formyl-4-hydroxypyrrolidin-3-yl)-5-hydroxy-6-(hydroxymethyl)-3-methoxytetrahydro-2H-pyran-2-carboxamide]
The pIC50 of the first is 0.32 log units lower: 7.40 for the first, 7.72 for the second. The second is the more potent here.

Compared with CO[C@@H]1[C@@H](n2cc(-c3cc(F)c(C)c(F)c3)nn2)[C@@H](O)[C@@H](CO)O[C@H]1C(=O)N(c1cc(Cl)cc(Cl)c1)[C@@H]1COC[C@H]1O [Example 44, (2R,3R,4S,5R,6R)-N-(3,5-dichlorophenyl)-4-(4-(3,5-difluoro-4-methylphenyl)-1H-1,2,3-triazol-1-yl)-5-hydroxy-6-(hydroxymethyl)-N-((3R,4S)-4-hydroxytetrahydrofuran-3-yl)-3-methoxytetrahydro-2H-pyran-2-carboxamide], CO[C@@H]1[C@@H](n2cc(-c3cc(F)c(F)c(F)c3)nn2)[C@@H](O)[C@@H](CO)O[C@H]1C(=O)N(c1cc(Cl)cc(Cl)c1)[C@H]1CNCC[C@@H]1O [Example 113, (2R,3R,4S,5R,6R)-N-(3,5-dichlorophenyl)-5-hydroxy-6-(hydroxymethyl)-N-((3S,4S)-4-hydroxypiperidin-3-yl)-3-methoxy-4-(4-(3,4,5-trifluorophenyl)-1H-1,2,3-triazol-1-yl)tetrahydro-2H-pyran-2-carboxamide] is 0.80 log units higher in pIC50: 7.09 for the first, 7.89 for the second. The second is the more potent here.
